Where two headings read alike, the source gives them in different places.
Experiments:
[1] = topical use; cited from earlier work
[2] = Dose ranging study of bethanechol cream in healthy volunteers, anal manometry; type: in vivo, human; settings: higher concentrations produced no additional effect
From the text: Bethanechol cream at concentrations of 0.05%, 0.1%, 0.5% and 1% w/w bethanechol were made up in accordance with Example 1. The compositions were studied following initial experimentation in an open way to determine a clinically effective dose range. […] Maximal effect was produced by application of 0.1% bethanechol and higher concentrations of the cream produced no additional effect. At 0.1% w/w bethanechol, the mean resting pressure was reduced from about 110 cm to about 85 cm H2O (about 25% decrease). A typical ‘one inch’ application of this cream from the tube is equivalent to 400 mcg of bethanechol.

[3] = higher concentrations did not produce an additional effect
[4] = Study of Example 4 repeated using oral diltiazem
[5] = after 1 hour, patients with anal fissures; cited from earlier work

In the case of `O=[N+]([O-])OCC(CO[N+](=O)[O-])O[N+](=O)[O-]` [glyceryl trinitrate], the “effect on internal anal resting pressure” value [1] is given as “reduces the internal anal resting pressure”.
In the case of `CC(C[N+](C)(C)C)OC(N)=O` (stereo not shown) [bethanechol], the “concentration producing the maximal effect on resting anal pressure” value [2] is reported as 0.1 % w/w.
For `COc1ccc([C@@H]2Sc3ccccc3N(CCN(C)C)C(=O)[C@@H]2OC(C)=O)cc1` [diltiazem], the “concentration producing the maximal effect on resting anal pressure” value [3] was “about 2 % w/w”, the “effect on mean anal resting pressure” value ([4]; 60 mg oral once a day) was “no notable effect” and the “patients who noticed postural dizziness” value ([4]; 60 mg oral twice a day) was “two”. The “mean anal resting pressure reduced by” value ([4]; 60 mg oral twice a day, P=0.008) was 17%.
In the case of `O=C(NC1CCN(CCc2c[nH]c3ccccc23)CC1)c1ccccc1` [indoramin], the “reduction of maximum resting pressures in the anal canal” value [5] is listed as 35.8%.
